# What was measured:
# Format in all cases: cell-based
# [1] = tested on: Multi-drug resistant Pseudomonas aeruginosa (MDRP: ATCC BAA-2110); experiment: HPLC measurement of coproporphyrinogen III (CPIII) and protoporphyrin IX (PpIX) in MDRP cultured with ALA / ALA + EDTA; details: 4 hours after start of culture, ALA 0.5 mg/ml, EDTA 400 mg/ml where added
# Protocol: Multi-drug resistant Pseudomonas aeruginosa (MDRP: ATCC BAA-2110) was placed in tryptic soy broth medium (TBS: from DIFCO), and cultured at 37° C. for 24 hours. With an absorptiometer, the TBS medium comprising the cultured MDRP was adjusted to 1×10^9 CFU (Colony forming unit)/ml. In a 12-well plate, the following solutions (1)-(3) were each prepared and cultured. (1): TBS medium comprising MDRP adjusted to 1×10^9 CFU/ml, (2): a solution of (1) and ALA added to a final concentration of 0.5 mg/ml, and (3): a solution of (1) and ALA added to a final concentration of 0.5 mg/ml and EDTA added to a final concentration of 400 mg/ml. The solutions were collected 4 hours after the start of culture, and suspended in 0.25 ml of PBS per 1 g of the pelleted bacteria. To 0.2 ml of the suspension, 0.01 ml of 50% acetic acid and 0.9 ml of DMF/IPA (100:1) were added, vortexed, and separated by centrifugation (14, 000 rpm, 5 min, 4° C.). The concentrations of coproporphyrinogen III (CPIII) and protoporphyrin IX (PpIX) in the supernatant after centrifugal separation were measured with HPLC.
# [2] = tested on: Multi-drug resistant Pseudomonas aeruginosa (MDRP: ATCC BAA-2110); experiment: Number of MDRP bacteria after ALA + EDTA with or without PDT (LED 410 nm); details: no PDT, 18 hours of culture, ALA 1 mg/ml, EDTA 400 mg/ml where added, start 1×10^9 CFU/ml
# Protocol: Multi-drug resistant Pseudomonas aeruginosa (MDRP: ATCC BAA-2110) was cultured for 24 hours at 37° C. with tryptic soy broth medium (TBS: from DIFCO). Then, the TBS medium comprising MDRP at 1×10^9 CFU/ml was dispensed in a 12-well plate at 1 ml per well, and ALA was added to a final concentration of 1 mg/ml and EDTA was added to a final concentration of 400 mg/ml. These were divided into the group subjected to PDT (PDT group) and the group not subjected to PDT (non-PDT group) (each n=1). For the control group, only ALA at a final concentration of 1 mg/ml was added to 1 ml of the TBS medium comprising MDRP at 1×10^9 CFU/ml, and PDT was not carried out. The control group and the non-PDT group were cultured for 18 hours, and the number of bacteria in each well was counted. The PDT group was cultured for 18 hours, irradiated with LED (410 nm) at 50 J/cm^2, and then the number of bacteria was counted.
# [3] = tested on: Multi-drug resistant Pseudomonas aeruginosa (MDRP: BAA-2110); experiment: Number of MDRP bacteria after ALA + chelating agent other than EDTA with or without LED irradiation (PDT); details: Irradiation No, average values
# Protocol: Multi-drug resistant Pseudomonas aeruginosa (MDRP: BAA-2110) was cultured in tryptic soy broth medium (TBS: from DIFCO) for 24 hours at 37° C. Next, the TBS medium comprising MDRP was dispensed in a 12-well dish at 1 ml per well (1×10^4−2×10^5 CFU/mL). ALA at a final concentration of 1 mg/ml and a chelating agent other than EDTA (2.5 mg/mL of citric acid, 2.5 mg/mL of malic acid, 1 mg/mL of diethylenetriaminepentaacetic acid (DTPA), 1 mg/mL of triethylenetetramine-N,N,N′,N″,N′″,N″′-hexaacetic acid, 1 mg/mL of N-(2-hydroxyethyl) iminodiacetic acid, and 1 mg/mL of deferoxamine mesylate, each at final concentration) were added to each dish. For the control group, only ALA at a final concentration of 1 mg/ml was added to 1 ml of the TBS medium comprising MDRP. Next, these were cultured for 5 hours, and the number of bacteria in each well was counted. The PDT group was cultured for 5 hours, and then irradiated with LED (410 nm) at 50 J/cm^2, after which the number of bacteria was counted, and further the number of bacteria at 19 hours after irradiation was also counted.
# [4] = supernatant of bacterial extract, HPLC
smiles,measurement,setting,value
"NCC(=O)CCC(=O)O [ALA, 5-aminolevulinic acid]",proportion of PpIX against CPIII,[1],approximately 5.5%
same,CPIII,[1]; [4],889.6 nM
same,PpIX,[1]; [4],49.0 nM
same,Bacterial count (CFU/ml),[2]; listed as Control,4.2 × 10^9 CFU/ml
same,Bacterial count (CFU/ml),[2]; listed as control,4.2×10^9 CFU/ml
same,5 hours after addition of ALA + chelating agent (CFU/mL),[3]; ALA 1 mg/ml,3.6 × 10^5 CFU/mL
same,19 hours after irradiation (CFU/mL),[3]; ALA 1 mg/ml,1.4 × 10^9 CFU/mL
same,At the time of culture (CFU/mL),[3]; starting count,5.7 × 10^4 CFU/mL

# Source: patent publication US9603928B2, “Medicinal composition for promoting synthesis of protoporphyrin IX” (SBI Pharmaceuticals Co., Ltd., priority 2013, dated 2017)
